From patent US20040022789A1, “Methods and compositions for treating T cell mediated inflammatory/autoimmune diseases and disorders in subjects having a glucocorticoid regulation deficiency” (The Washington University, priority 2002, published 2004) come the findings set out here.

Common to all, as to assay type: in vivo
Assay [1] relates to control mice. Nature of the assay: Mortality after anti-CD3ε antibody in control mice pre-treated with mifepristone (GR antagonist). The procedure: (§1) Animal husbandry and plasma sampling: Mice were housed on a 12 h/12 h light/dark cycle with ad libitum access to rodent chow. Blood for measurement of corticosterone and cytokines was obtained by rapid retroorbital phlebotomy into heparinized capillary tubes with a total time from first handling the animal to completion of bleeding not exceeding 30 s. Plasma was separated by centrifugation and stored at −80° C. until assay. Unless otherwise noted, all mice used were 6-10 weeks old and of a C57BL/6×129/Sv genetic background.
(§2) Pharmacologic and antibody treatment: Mice were injected intraperitoneally 100 μg anti-CD3p antibody (145-2C11) diluted in 250 μl PBS. Dexamethasone-treated mice were injected intraperitoneally with 200 μg dexamethasone phosphate just prior to and eight hours after anti-CD3ε antibody challenge. Neutralizing anti-IFNγ antibody (H22, 50 μg) was injected intraperitoneally one day before anti-CD3ε antibody administration as described previously. See, e.g., Ferran, C. et al., Eur. J. Immunol, 21:2349-2353 (1991). Mifepristone (RU 486, Sigma) was dissolved in 100% ethanol (50 mg/ml). Mifepristone-treated mice were given 0.5 mg (diluted in sesame oil) s.c. the night before and one hour prior to inflammatory challenge. […]

In assay [2] the test system is IL-2. Nature of the assay: Plasma IL-2 after anti-CD3ε antibody (ELISA). The following applies: TGRko mice; dexamethasone 200 μg before and 8 hours after anti-CD3ε antibody. The protocol:
as §1
Cytokine Measurements: Plasma cytokines were measured according to manufacturer's instructions (Pharmingen).
as §2
(In general: An ELISA detects its analyte on a solid surface through an enzyme-linked reagent.)

The test system of assay [3] is adrenalectomized control mice. In words: Mortality after anti-CD3ε antibody in adrenalectomized control mice. The protocol: Adrenalectomy: Mice were adrenalectomized as previously described and rested one week before being subjected to experimentation. See, e.g., Muglia, L. J. et al, J. Clin. Invest., 105:1269-1277 (2000).
Pharmacologic and antibody treatment: Mice were injected intraperitoneally 100 μg anti-CD3p antibody (145-2C11) diluted in 250 μl PBS. Dexamethasone-treated mice were injected intraperitoneally with 200 μg dexamethasone phosphate just prior to and eight hours after anti-CD3ε antibody challenge. Neutralizing anti-IFNγ antibody (H22, 50 μg) was injected intraperitoneally one day before anti-CD3ε antibody administration as described previously. See, e.g., Ferran, C. et al., Eur. J. Immunol, 21:2349-2353 (1991). Mifepristone (RU 486, Sigma) was dissolved in 100% ethanol (50 mg/ml). Mifepristone-treated mice were given 0.5 mg (diluted in sesame oil) s.c. the night before and one hour prior to inflammatory challenge. Cox-2 selective inhibitor-treated mice were given 300 μg of either SC-236 or NS-398 suspended in PBS/1% Tween-80 or vehicle twice a day for two days by oral gavage as previously described by Gross, G. et al, Am J. Physiol. Regul. Integr. Comp. Physiol., 278:R^1415-R^1423 (2000).

Assay [4] relates to TGRko mice. In words: Mortality of TGRko mice after polyclonal T cell activation with anti-CD3ε antibody. The following applies: 100 μg anti-CD3ε antibody i.p., treatment before (and after) challenge. The protocol:
as §1
Generation of TGRko mice: To build a TGRko targeting vector (pGRloxPneo), a loxP site was inserted into the unique Sac I site in the GR gene region upstream of exon 2 between exons 1B and 1C. A PGKneo (gene encoding for resistance to neomycin) cassette was then subcloned containing flanking loxP sites into intron 2 of the GR gene using oligonucleotide linkers. To obtain ES clones having replaced one copy of the endogenous murine GR locus with the GRloxPneo allele, TC1 ES cells were electroporated in the presence of linearized pGRloxPneo as has previously been described (See, e.g., Muglia, L. J. et al., J. Clin. Invest., 93:2066-2072 (1994)). DNA from 87 G418 resistant embryonic stem cell (ES) clones was analyzed by Southern blot, employing a probe external to the flanking regions within our targeting vector. […]

As for `CC#C[C@]1(O)CC[C@H]2[C@@H]3CCC4=CC(=O)CCC4=C3[C@@H](c3ccc(N(C)C)cc3)C[C@@]21C` [mifepristone], the “susceptibility to the lethal effects of T cell activation” value in assay [1] (control mice, mifepristone+vehicle (m/v) compared to vehicle controls (v/v)) is “significantly more susceptible”.
In the case of `C[C@@H]1C[C@H]2[C@@H]3CCC4=CC(=O)C=C[C@]4(C)[C@@]3(F)[C@@H](O)C[C@]2(C)[C@@]1(O)C(=O)CO` [dexamethasone], the “plasma IL-2” value in assay [2] is listed as “no significant effect”.
Consider `NS(=O)(=O)c1ccc(-n2nc(C(F)(F)F)cc2-c2ccc(Cl)cc2)cc1` [SC-236], for which the protection from mortality entry in assay [1] (control mice treated with mifepristone+SC-236 (m/s) compared to vehicle-treated counterparts) is “significantly protected”. Moreover, the “mice died within eight hours of anti-CD3ε antibody treatment” value in assay [3] (ADX+SC-236 (ADX+vehicle 4/5, Sham operated+vehicle 0/3)) is listed as 2/6. The rescue from mortality result in assay [3] (adrenalectomized control mice, shorter timescale) is “essentially the same degree of rescue”. Moreover, in assay [4], the “mortality / lethality after anti-CD3ε antibody administration” value was “Protection from lethality”.
